# Assay results from ChEMBL document CHEMBL1201862, “PubChem BioAssay data set” (2004).
# Where “and” joins values, the source holds several entries; their conditions need not be identical. Equal values may be shown once. Calls of active or inactive are those of the source.
# Columns and labels:
# [1] = target: 1-phosphatidylinositol 4,5-bisphosphate phosphodiesterase beta-3 (Homo sapiens, UniProt Q01970); test: Fluorescence-based biochemical high throughput dose response assay to identify inhibitors of phospholipase C isozymes (PLC-B3).
# Sequence of 1-phosphatidylinositol 4,5-bisphosphate phosphodiesterase beta-3 (Q01970 whole entry): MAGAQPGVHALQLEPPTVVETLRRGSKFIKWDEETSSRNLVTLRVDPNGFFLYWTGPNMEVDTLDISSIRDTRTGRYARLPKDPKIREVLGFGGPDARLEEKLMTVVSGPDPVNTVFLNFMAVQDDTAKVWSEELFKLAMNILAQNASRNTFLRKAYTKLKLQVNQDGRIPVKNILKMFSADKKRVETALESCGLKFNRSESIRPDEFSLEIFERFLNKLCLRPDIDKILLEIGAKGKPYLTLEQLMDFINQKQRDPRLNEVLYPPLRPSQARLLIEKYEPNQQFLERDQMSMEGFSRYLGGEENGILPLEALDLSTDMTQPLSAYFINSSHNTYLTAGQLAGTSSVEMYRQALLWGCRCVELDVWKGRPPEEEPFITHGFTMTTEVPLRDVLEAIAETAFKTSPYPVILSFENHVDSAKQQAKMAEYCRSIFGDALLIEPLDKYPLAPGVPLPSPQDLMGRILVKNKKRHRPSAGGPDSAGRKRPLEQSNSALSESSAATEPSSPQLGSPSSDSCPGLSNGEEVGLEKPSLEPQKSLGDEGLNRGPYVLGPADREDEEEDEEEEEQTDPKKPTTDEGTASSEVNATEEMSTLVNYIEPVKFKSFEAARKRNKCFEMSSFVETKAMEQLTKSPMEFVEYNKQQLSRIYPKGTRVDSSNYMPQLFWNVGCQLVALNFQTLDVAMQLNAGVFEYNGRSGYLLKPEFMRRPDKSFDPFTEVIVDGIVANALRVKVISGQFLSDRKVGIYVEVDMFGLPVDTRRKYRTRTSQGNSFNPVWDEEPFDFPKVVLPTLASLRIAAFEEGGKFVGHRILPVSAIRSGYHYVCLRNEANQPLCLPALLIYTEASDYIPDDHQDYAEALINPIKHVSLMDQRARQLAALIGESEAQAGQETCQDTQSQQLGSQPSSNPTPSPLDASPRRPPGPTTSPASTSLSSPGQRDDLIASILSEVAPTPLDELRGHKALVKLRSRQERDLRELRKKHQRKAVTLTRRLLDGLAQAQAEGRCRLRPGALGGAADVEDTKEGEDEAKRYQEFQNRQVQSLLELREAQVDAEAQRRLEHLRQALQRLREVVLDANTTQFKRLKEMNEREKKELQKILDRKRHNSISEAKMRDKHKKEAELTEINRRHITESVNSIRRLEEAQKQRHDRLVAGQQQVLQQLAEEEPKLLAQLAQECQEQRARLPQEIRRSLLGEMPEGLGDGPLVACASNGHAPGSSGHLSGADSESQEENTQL
# [2] = target: 1-phosphatidylinositol 4,5-bisphosphate phosphodiesterase gamma-1 (Homo sapiens, UniProt P19174); test: Counterscreen for inhibitors of phospholipase C isozymes (PLC-B3): Fluorescence-based biochemical high throughput dose response assay to identify inhibitors of phospholipase C isozymes (PLC-gamma1).
# [3] = target: Disintegrin and metalloproteinase domain-containing protein 17 (Homo sapiens, UniProt P78536); test: inhibition of ADAM17 substrate cleavage – biochemical, quenched FRET substrate, counter-screen for ADAM10 exosite inhibitor project, dose response (AID 743253)
# Sequence of Disintegrin and metalloproteinase domain-containing protein 17 (P78536 whole entry, the tested form may be a part): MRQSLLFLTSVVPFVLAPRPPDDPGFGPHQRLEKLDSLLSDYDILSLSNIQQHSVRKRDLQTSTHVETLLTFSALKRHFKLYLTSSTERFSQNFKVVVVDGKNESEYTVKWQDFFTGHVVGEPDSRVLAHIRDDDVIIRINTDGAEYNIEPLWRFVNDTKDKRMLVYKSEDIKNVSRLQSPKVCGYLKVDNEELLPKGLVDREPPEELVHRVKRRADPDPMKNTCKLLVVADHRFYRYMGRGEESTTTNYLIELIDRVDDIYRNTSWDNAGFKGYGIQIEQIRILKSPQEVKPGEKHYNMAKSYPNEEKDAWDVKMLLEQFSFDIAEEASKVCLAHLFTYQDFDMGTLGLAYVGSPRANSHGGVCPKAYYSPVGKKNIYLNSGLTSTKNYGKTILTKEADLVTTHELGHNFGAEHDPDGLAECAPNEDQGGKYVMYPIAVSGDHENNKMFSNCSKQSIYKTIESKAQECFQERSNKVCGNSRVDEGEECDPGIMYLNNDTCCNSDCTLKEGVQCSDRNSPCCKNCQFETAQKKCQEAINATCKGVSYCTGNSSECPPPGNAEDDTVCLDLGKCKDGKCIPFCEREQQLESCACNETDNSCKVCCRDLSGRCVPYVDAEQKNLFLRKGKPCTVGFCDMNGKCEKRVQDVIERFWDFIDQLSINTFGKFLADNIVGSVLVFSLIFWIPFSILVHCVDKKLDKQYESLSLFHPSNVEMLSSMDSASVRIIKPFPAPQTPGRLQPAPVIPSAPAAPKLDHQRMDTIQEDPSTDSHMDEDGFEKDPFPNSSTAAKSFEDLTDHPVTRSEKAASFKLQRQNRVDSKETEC
# [4] = potency of ADAM10 substrate cleavage blockers – biochemical, QFRET, dose response (AID 743254);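 note: ADAM10 enzyme with the DM2 quenched FRET peptide as substrate; EDANS fluorescence gain as the protease cuts the substrate; inhibitor potency against ADAM10 proteolytic activity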
# [5] = HIV-1 AD8 envelope cell-cell fusion blockers – cherry-pick, dose response (AID 652062); format: functional, cell-based;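 note: luciferase signal from cell-cell fusion driven by HIV-1 clade B AD8 Env; potency is for inhibitors of fusion seen as a drop in luminescence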
# [6] = inhibition of Env-driven cell fusion – HIV entry, plate reader, dry powder, dose response (AID 687023); format: functional, cell-based
# [7] = off-target signal loss in HeLa-CEM21 co-culture – HeLa F-luc CTL cells, cherry-picked, counter-screen for HIV-1 Env fusion inhibitor project, dose response (AID 652040); format: functional, cell-based;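 note: potency for signal decrease marking cytotoxic or nonspecific inhibition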
# [8] = blockers of HIV-1 envelope-mediated cell-cell fusion – cherry-pick, dose response (AID 652057); format: functional, cell-based
# [9] = viability loss in CEM21 cells – cell-based, CellTiter-Glo luminescence, cherry-picked, cytotoxicity control for viral fusion inhibitor project, dose response (AID 652042); format: functional;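 note: potency for signal decrease meaning cytotoxicity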
# [10] = viability loss in CEM21 cells – cell-based, plate reader, dry powder, cytotoxicity control, dose response (AID 687026); format: functional
# [11] = HEK293 Cytotoxicity Assay Measured in Cell-Based System Using Plate Reader - 7071-01_Inhibitor_Dose_CherryPick_Activity_Set2.; format: functional
# [12] = system: HEK293; test: viability loss in HEK293T cells – cell-based, ATP luminescence, cherry-pick samples, cytotoxicity control, dose response (AID 687005); format: functional; conditions: Homo sapiens;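 note: cells exposed to compound for 48 hours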
# [13] = Late-stage results from the probe development effort to identify antagonists of arginine vasopressin receptor 1a (AVPR1a): fluorescence-based cell-based dose response OXTR inhibition counterscreen assay.; format: functional
# [14] = target: Vasopressin V1b receptor (Homo sapiens, UniProt P47901); test: Late-stage results from the probe development effort to identify antagonists of arginine vasopressin receptor 1a (AVPR1a): fluorescence-based cell-based dose response AVPR1b inhibition counterscreen assay.; format: functional
# Sequence of Vasopressin V1b receptor (P47901 whole entry): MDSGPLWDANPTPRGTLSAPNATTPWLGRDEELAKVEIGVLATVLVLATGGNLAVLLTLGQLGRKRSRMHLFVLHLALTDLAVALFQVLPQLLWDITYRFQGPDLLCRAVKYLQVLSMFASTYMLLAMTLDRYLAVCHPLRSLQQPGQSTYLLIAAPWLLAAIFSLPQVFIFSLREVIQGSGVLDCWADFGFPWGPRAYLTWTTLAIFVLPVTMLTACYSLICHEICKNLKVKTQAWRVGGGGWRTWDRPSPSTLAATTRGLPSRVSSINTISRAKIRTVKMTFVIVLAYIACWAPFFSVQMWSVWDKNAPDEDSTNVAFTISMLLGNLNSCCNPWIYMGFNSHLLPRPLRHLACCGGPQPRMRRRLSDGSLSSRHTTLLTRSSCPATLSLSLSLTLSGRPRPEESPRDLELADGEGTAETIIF
# [15] = Late-stage results from the probe development effort to identify antagonists of arginine vasopressin receptor 1a (AVPR1a): fluorescence-based cell-based dose response AVPR1a inhibition assay.; format: functional
# [16] = target: Vasopressin V2 receptor (Homo sapiens, UniProt P30518); test: Late-stage results from the probe development effort to identify antagonists of arginine vasopressin receptor 1a (AVPR1a): fluorescence-based cell-based dose response AVPR2 inhibition counterscreen assay.; format: functional
# Sequence of Vasopressin V2 receptor (P30518 whole entry): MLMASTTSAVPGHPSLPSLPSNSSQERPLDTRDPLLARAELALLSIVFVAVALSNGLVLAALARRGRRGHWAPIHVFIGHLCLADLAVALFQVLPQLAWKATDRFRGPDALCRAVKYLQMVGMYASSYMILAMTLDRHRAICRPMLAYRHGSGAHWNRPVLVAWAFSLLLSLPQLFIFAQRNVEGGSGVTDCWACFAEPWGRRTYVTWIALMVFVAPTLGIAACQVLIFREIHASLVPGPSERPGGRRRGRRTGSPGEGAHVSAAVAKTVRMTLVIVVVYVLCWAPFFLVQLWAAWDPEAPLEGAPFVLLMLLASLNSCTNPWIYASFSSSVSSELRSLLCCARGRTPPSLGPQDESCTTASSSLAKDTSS
# [17] = target: NAD-dependent protein deacylase sirtuin-5, mitochondrial (Homo sapiens, UniProt Q9NXA8); test: blockers of sirtuin-5 peptide desuccinylation – biochemical, fluorescence imaging, cherry-pick, set 6, dose response (AID 720597)
# Sequence of NAD-dependent protein deacylase sirtuin-5, mitochondrial (Q9NXA8 whole entry): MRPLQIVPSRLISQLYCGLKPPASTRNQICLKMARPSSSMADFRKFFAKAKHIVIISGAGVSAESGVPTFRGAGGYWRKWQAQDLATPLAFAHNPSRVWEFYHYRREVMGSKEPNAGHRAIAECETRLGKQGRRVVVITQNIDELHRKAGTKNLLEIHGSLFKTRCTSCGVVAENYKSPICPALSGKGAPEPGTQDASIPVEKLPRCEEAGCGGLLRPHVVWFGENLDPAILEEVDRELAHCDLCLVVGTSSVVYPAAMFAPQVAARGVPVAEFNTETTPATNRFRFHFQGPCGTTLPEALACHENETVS
# [18] = target: G-protein coupled receptor 183 (Homo sapiens, UniProt P32249); test: Dose-response confirmation of small molecule antagonists of the EBI2 receptor via a luminescent beta-arrestin assay.; format: functional
# Sequence of G-protein coupled receptor 183 (P32249 whole entry): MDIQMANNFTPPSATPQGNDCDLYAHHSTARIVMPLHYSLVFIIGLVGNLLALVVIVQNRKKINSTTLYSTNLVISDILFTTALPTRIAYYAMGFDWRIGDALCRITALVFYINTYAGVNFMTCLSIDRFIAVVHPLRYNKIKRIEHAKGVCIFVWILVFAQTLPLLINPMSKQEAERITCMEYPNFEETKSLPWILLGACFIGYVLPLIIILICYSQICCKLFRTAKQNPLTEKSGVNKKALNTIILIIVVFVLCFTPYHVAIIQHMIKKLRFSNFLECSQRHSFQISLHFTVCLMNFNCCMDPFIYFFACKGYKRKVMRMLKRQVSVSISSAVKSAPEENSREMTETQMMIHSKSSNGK
# [19] = target: Beta-galactosidase (Escherichia coli, UniProt Q8VNN2); test: Dose response counterscreen for EBI2 assay utilizing the enzyme, b-galactosidase.; format: functional
# Sequence of Beta-galactosidase (Q8VNN2 whole entry): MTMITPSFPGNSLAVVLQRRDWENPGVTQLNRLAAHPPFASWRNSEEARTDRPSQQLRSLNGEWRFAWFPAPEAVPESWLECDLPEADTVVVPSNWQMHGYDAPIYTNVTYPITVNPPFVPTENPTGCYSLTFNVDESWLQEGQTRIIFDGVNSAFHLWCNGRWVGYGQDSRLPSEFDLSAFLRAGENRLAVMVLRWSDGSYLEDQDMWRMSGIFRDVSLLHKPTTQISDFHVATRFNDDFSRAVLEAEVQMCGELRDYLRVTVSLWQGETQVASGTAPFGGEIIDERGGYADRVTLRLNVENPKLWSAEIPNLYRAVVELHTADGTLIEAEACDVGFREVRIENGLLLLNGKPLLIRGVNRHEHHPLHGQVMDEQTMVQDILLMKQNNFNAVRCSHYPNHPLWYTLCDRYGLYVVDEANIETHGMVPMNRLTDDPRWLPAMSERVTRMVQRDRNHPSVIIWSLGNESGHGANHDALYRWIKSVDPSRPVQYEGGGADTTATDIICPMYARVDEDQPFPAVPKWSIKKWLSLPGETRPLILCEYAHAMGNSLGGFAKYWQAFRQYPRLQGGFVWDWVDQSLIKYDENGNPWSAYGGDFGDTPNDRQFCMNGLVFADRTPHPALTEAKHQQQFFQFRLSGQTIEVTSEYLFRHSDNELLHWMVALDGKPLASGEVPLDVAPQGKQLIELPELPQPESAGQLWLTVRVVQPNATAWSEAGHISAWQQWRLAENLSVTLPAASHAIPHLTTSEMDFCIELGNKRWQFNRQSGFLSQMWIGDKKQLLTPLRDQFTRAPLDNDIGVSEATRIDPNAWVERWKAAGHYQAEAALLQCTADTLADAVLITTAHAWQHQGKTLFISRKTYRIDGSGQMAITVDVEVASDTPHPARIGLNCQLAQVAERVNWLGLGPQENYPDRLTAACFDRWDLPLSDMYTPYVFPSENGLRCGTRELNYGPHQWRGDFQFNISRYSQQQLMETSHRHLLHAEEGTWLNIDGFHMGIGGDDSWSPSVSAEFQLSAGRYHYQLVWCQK
# [20] = target: Matrix metalloproteinase-14 (Homo sapiens, UniProt P50281); test: Dose Response confirmation of uHTS hits for a small molecule inhibitors of MT1-MMP activation in a fluorescence assay set 1.; format: functional
# [21] = loss of viability in HepG2 cells – cell-based, CellTiter-Glo, cherry-picked, cytotoxicity control for Shn3 inhibitor project, dose response (AID 624134); format: functional
# [22] = non-specific 3'UTR reporter inhibition in Clone20-Shn3RL – cell-based, Renilla luciferase, cherry-picked, counter-screen for Shn3 inhibitor project, dose response (AID 624133); format: functional
# [23] = reduction of Shn3 3'UTR-driven luciferase in osteoblasts – cell-based, Clone20 osteoblasts, firefly luciferase, cherry-picked, dose response (AID 624132); format: functional;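 note: firefly luciferase luminescence from reporter carrying the Shn3 3'UTR in osteoblasts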
# [24] = Shn3 3'UTR reporter signal decrease – cell-based, Clone20 osteoblasts, firefly luciferase, cherry-pick, set 2, Schnurri-3 inhibitor project, dose response (AID 720490); format: functional;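 note: actives lower the luminescence signal as inhibitors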
structure (smiles),measurement,setting,value
COc1cccc(C(=O)Nc2ccc(-n3nncc3C(C)(C)C)cc2)c1,IC50,[1],> 122 µM (inactive)
same,IC50,[2],> 122 µM (inactive)
COc1ccc(-c2[nH]nc(C)c2-c2cnn(-c3ccccc3)c2)c(O)c1C,IC50,[3],> 69.5 µM (inactive)
same,IC50,[4],> 7.72 µM (active)
CC(=O)Nc1ccc(NC(=O)CN(c2ccc(C34CC5CC(CC(C5)C3)C4)cc2)S(C)(=O)=O)cc1,AC50,[5],5.78 µM (active)
same,AC50,[6],7.68 µM (active) and 9 µM (active)
same,AC50,[7],> 70 µM (inactive)
same,AC50,[8],2.87 µM (active)
same,AC50,[9],57.7 µM (active)
same,AC50,[10],50.4 µM (active)
C[C@H]1CN([C@@H](C)CO)S(=O)(=O)c2ccc(Br)cc2O[C@@H]1CN(C)S(=O)(=O)c1ccccc1F,AC50,[11],15.7 µM (active)
same,AC50,[12],15.7 µM (active)
COc1ccc(N(CC2CC2)C(=O)N2CCN(c3ccccc3C(F)(F)F)CC2)cc1,IC50,[13],0.12 µM (active)
same,IC50,[14],17.9 µM (inactive)
same,IC50,[15],0.0588 µM (active)
same,IC50,[16],8.41 µM (active)
Cc1ccc(S(=O)(=O)N(C)C[C@H]2OCCCC[C@H](C)Oc3ccc(NS(=O)(=O)c4ccc(F)cc4)cc3C(=O)N([C@@H](C)CO)C[C@H]2C)cc1,AC50,[17],> 30 µM (inactive)
O=C(/C=C/c1ccccc1)N1CCN(S(=O)(=O)c2ccc(F)cc2)CC1,IC50,[18],0.626 µM (active)
same,IC50,[19],> 80 µM (inactive)
CNc1ccccc1C(C)(C)c1cc(-c2cccc(OC)c2)no1,IC50,[20],> 80 µM (inactive)
same,AC50,[21],56.8 µM (active)
same,AC50,[22],9.49 µM (active)
same,AC50,[23],1.92 µM (active)
same,AC50,[24],1.82 µM (active)
